Reference: patent US20110129868A1, “CELL CAPABLE OF REPLICATING NOVEL HCV REPLICON, CELL CAPABLE OF REPLICATING FULL-LENGTH HCV RNA, AND USE OF THOSE CELLS” (priority 2008, published 2011)

How the values were obtained:
[1] = test system: full-length HCV RNA replication in ORL11 cells; assay: microbe, parasite or virus in culture; assay type: cell-based, HCV-O strain (genotype 1b); settings: for measured luciferase activity value: 24 hours after the addition, 750,000 without IFN-α
Description: (§1) Renilla luciferase was quantified by collecting cells using a Renilla Luciferase Assay System (Promega) according to the manufacturer's experiment protocol.
(§2) Luciferase activity of each cell line was then measured at hour 24, 48, and 72. […] SD values were calculated based on the results from three samples at each point. […]

[2] = test system: full-length HCV RNA replication in ORL8 cells; assay: microbe, parasite or virus in culture; assay type: cell-based, HCV-O strain (genotype 1b); settings: ORL8 cells; for measured luciferase activity value: 24 hours after the addition, 380,000 without IFN-α
Description: as §1, §2

[3] = test system: full-length HCV RNA replication in OR6 cells; assay: microbe, parasite or virus in culture; assay type: cell-based, HCV-O strain (genotype 1b); settings: OR6 cells
Source text: as §1
An OR6-cell assay system was used as a control.

[4] = test system: HCV replicon RNA replication in sORL8 (pool) cells; assay: luciferase reporter assay using sORL8 (pool) cells; assay type: cell-based, HCV-O strain (genotype 1b); settings: luciferase activity after 72 hours
Source text: as §1
(§3) In the ORN/3-5B/QR, KE, SR (replicon RNA)-introduced OL8c and OL11c cells, G418-resistant cells filled the dish in 2 weeks (FIG. 9). Because the whole cells were estimated to be several tens of thousands of colonies, the G418-resistant cells were mixed without cloning, and used as reporter gene-carrying replicon-replicating cells (sORL8 (pool) cells and sORL11 (pool) cells). These cells had luciferase activities measuring 8×10^5 and 15×10^5, respectively, in terms of actual measurement values per 2×10^5 cells (Promega assay kit). […] Note that the doubling time of the cells using a common subculture medium (in the presence of G418) was calculated as 53 hours and 40 hours. It was also confirmed that the replicon RNA in these cells were not incorporated into the host DNA (the results are not presented).
(§4) The same experiments were conducted using sORL8 (pool) cells and sORL11 (pool) cells.

[5] = test system: HCV replicon RNA replication in sORL11 (pool) cells; assay: luciferase reporter assay using sORL11 (pool) cells; assay type: cell-based, HCV-O strain (genotype 1b); settings: luciferase activity after 72 hours
Source text: as §1, §3, §4

ORL8 cells = assay: cell count by trypan blue staining, ORL8 cells; assay type: cell-based, human; settings: drug at the concentration corresponding to the EC50 value
ORL11 cells = assay: cell count by trypan blue staining, ORL11 cells; assay type: cell-based, human
OR6 cells = assay: cell count by trypan blue staining, OR6 cells; assay type: cell-based, human; settings: drug at the concentration corresponding to the EC50 value
[6] = test system: full-length HCV RNA replication in OL8, OL11, and OL14 cells; settings: IFN-α 50, 100, or 200 IU/ml every 4 days; 25 days; as in O cells
Source text: The colonies that appeared as G418 resistant cells were stained with CBB solution (FIG. 7). […] No G418-resistant cell colonies were obtained in OL14 cells.

[7] = test system: full-length HCV RNA replication in 1B-4RL8 cells; assay: luciferase activity and HCV RNA level in 1B-4RL8 cells; assay type: cell-based, HCV strain 1B-4 (genotype 1b); settings: 24 hours after the addition of IFN-α (1, 10, 100 IU/ml)
Description: (§5) Total RNA was extracted from the HCV RNA replicating cells using an RNeasy Mini Kit (Qiagen) according to the manufacturer's experiment protocol. First, using 2 μg of RNA as a template, reverse transcription (RT) reaction was performed with SuperScript™ II reverse transcriptase (Invitrogen) and the primer 319R below according to the manufacturer's experiment protocol. HCV RNA was quantified by real-time LightCycler PCR, using the resulting cDNA as a template. Real-Time LightCycler PCR was performed based on the method previously reported by the present inventors (reference: Acta Med. Okayama 56, 107-110, 2002), using the primers 104 and 197R below.
as §1
(§6) The 1B-4RL8 and KAH5RL8 cells were examined with regard to a possible correlation between luciferase activity and HCV RNA level (FIG. 49). The graphs on the left represent the measured luciferase activities 24 hours after the addition of IFN-α (0, 1, 10, 100 IU/ml) to the 1B-4RL8 and KAH5RL8 cells (each cultured for 2 days after inoculating 2×10^4 cells in a 24-well plate). Measurements were made in at least 3 wells at each point. A one hundred percent measurement value of 300,000 was obtained for the 1B-4RL8 and KAH5RL8 cells. […]

[8] = test system: full-length HCV RNA replication in KAH5RL8 cells; assay: luciferase activity and HCV RNA level in KAH5RL8 cells; assay type: cell-based, HCV strain KAH5 (genotype 1b); settings: 24 hours after the addition of IFN-α (1, 10, 100 IU/ml)
Description: as §5, §1, §6

[9] = 24 hours after the addition of IFN-α (1, 10, 100 IU/ml)
[10] = drug concentrations based on the EC50 values

## IFN-α
[1]; 1 IU/ml IFN-α
  measured luciferase activity value: 300,000
[1]; 10 IU/ml IFN-α
  measured luciferase activity value: 76,000
[1]; 100 IU/ml IFN-α
  measured luciferase activity value: 27,000
[1]; [9]
  luciferase activity and HCV RNA level: decreased in a manner that depended on IFN-α concentration
[1]; IFN-α at 0.25 IU/ml, ribavirin at 12.5 W
  luciferase activity after treatment (single agent or combined use): 48%
[1]; [10]
  luciferase activity after treatment (single agent or combined use): 41%
[2]; [9]
  luciferase activity and HCV RNA level: decreased in a manner that depended on IFN-α concentration
[2]; IFN-α at 0.25 IU/ml, ribavirin
  luciferase activity after treatment (single agent or combined use): 26%
[2]; addition of 1 IU/ml IFN-α
  measured luciferase activity value: 113,000
[2]; addition of 10 IU/ml IFN-α
  measured luciferase activity value: 36,000
[2]; addition of 100 IU/ml IFN-α
  measured luciferase activity value: 19,000
[2]; [10]
  luciferase activity after treatment (single agent or combined use): 50%
[3]; IFN-α at 0.25 IU/ml, ribavirin
  luciferase activity after treatment (single agent or combined use): 75%
[3]; [10]
  luciferase activity after treatment (single agent or combined use): 67%
[3]; luciferase activity after 72 hours
  EC50: 0.40 IU/ml
[4]
  EC50: 0.14 IU/ml
[5]
  EC50: 0.25 IU/ml
ORL8 cells
  cell count over the control cells: ≥ 95%
ORL11 cells
  cell count over the control cells: ≥ 95%
OR6 cells
  cell count over the control cells: ≥ 95%
[6]
  sensitivity of full-length HCV RNA replication (G418-resistant colonies): highly sensitive
[7]
  luciferase activity and HCV RNA level: decreased in a manner that depended on IFN-α concentration
[8]
  luciferase activity and HCV RNA level: decreased in a manner that depended on IFN-α concentration
